Key:
Experiment in all cases: KINOMEscan
Format in all cases: binding
Details in all cases: read-out: % Ctrl
YANK2 = biological target: T1, YANK2 (Homo sapiens, UniProt Q9NY57)
T1 construct: purchased DiscoveRx KINOMEscan
Summary of the method: (§1)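 Competition binding panel of 442 non-mutant kinases: test compound at 5 and 10 μM competed with an active-site-directed ligand for 1 h with shaking. Bound kinase was eluted with 0.5 μM ligand and quantified by qPCR; %Ctrl = (compound − positive control)/(DMSO − positive control) × 100, lower meaning tighter binding.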

[1] = biological target: RPS6KA5(Kin.Dom.2-C-terminal) (Homo sapiens, UniProt O75582)
Summary of the method: as §1

SLK = biological target: T2, SLK (Homo sapiens, UniProt Q9H2G2)
T2 construct: purchased DiscoveRx KINOMEscan
Summary of the method: as §1

CAMKK1 = biological target: T3, CAMKK1 (Homo sapiens, UniProt Q8N5S9)
T3 construct: purchased DiscoveRx KINOMEscan
Summary of the method: as §1

NLK = biological target: T4, NLK (Homo sapiens, UniProt Q9UBE8)
T4 construct: purchased DiscoveRx KINOMEscan
Summary of the method: as §1

MET(Y1235D) = biological target: T5, MET(Y1235D) (Homo sapiens, UniProt P08581, Y1235D)
T5 construct: purchased DiscoveRx KINOMEscan

GCN2(Kin.Dom.2,S808G) = biological target: T6, GCN2(Kin.Dom.2,S808G) (Homo sapiens, UniProt Q9P2K8, S808G)
T6 construct: GCN2(Kin.Dom.2,S808G); purchased DiscoveRx KINOMEscan

DLK = biological target: T7, DLK (Homo sapiens, UniProt Q12852)
T7 construct: purchased DiscoveRx KINOMEscan
Summary of the method: as §1

CDK3 = biological target: T8, CDK3 (Homo sapiens, UniProt Q00526)
T8 construct: purchased DiscoveRx KINOMEscan
Summary of the method: as §1

DRAK1 = biological target: T9, DRAK1 (Homo sapiens, UniProt Q9UEE5)
T9 construct: purchased DiscoveRx KINOMEscan
Summary of the method: as §1

NDR1 = biological target: T10, NDR1 (Homo sapiens, UniProt Q15208)
T10 construct: purchased DiscoveRx KINOMEscan
Summary of the method: as §1

BLK = biological target: T11, BLK (Homo sapiens, UniProt P51451)
T11 construct: purchased DiscoveRx KINOMEscan
Summary of the method: as §1

TSSK1B = biological target: T12, TSSK1B (Homo sapiens, UniProt Q9BXA7)
T12 construct: purchased DiscoveRx KINOMEscan
Summary of the method: as §1

PKN1 = biological target: T13, PKN1 (Homo sapiens, UniProt Q16512)
T13 construct: purchased DiscoveRx KINOMEscan
Summary of the method: as §1

AKT3 = biological target: T14, AKT3 (Homo sapiens, UniProt Q9Y243)
T14 construct: purchased DiscoveRx KINOMEscan
Summary of the method: as §1

PAK6 = biological target: T15, PAK6 (Homo sapiens, UniProt Q9NQU5)
T15 construct: purchased DiscoveRx KINOMEscan
Summary of the method: as §1

PIK3CA(C420R) = biological target: T16, PIK3CA(C420R) (Homo sapiens, UniProt P42336, C420R)
T16 construct: purchased DiscoveRx KINOMEscan

MARK2 = biological target: T17, MARK2 (Homo sapiens, UniProt Q7KZI7)
T17 construct: purchased DiscoveRx KINOMEscan
Summary of the method: as §1

CSNK1D = biological target: T18, CSNK1D (Homo sapiens, UniProt P48730)
T18 construct: purchased DiscoveRx KINOMEscan
Summary of the method: as §1

TEC = biological target: T19, TEC (Homo sapiens, UniProt P42680)
T19 construct: purchased DiscoveRx KINOMEscan
Summary of the method: as §1

PIM2 = biological target: T20, PIM2 (Homo sapiens, UniProt Q9P1W9)
T20 construct: purchased DiscoveRx KINOMEscan
Summary of the method: as §1

PRKCE = biological target: T21, PRKCE (Homo sapiens, UniProt Q02156)
T21 construct: purchased DiscoveRx KINOMEscan
Summary of the method: as §1

ANKK1 = biological target: T22, ANKK1 (Homo sapiens, UniProt Q8NFD2)
T22 construct: purchased DiscoveRx KINOMEscan
Summary of the method: as §1

ERK1 = biological target: T23, ERK1 (Homo sapiens, UniProt P27361)
T23 construct: purchased DiscoveRx KINOMEscan
Summary of the method: as §1

TTK = biological target: T24, TTK (Homo sapiens, UniProt P33981)
T24 construct: purchased DiscoveRx KINOMEscan
Summary of the method: as §1

PHKG2 = biological target: T25, PHKG2 (Homo sapiens, UniProt P15735)
T25 construct: purchased DiscoveRx KINOMEscan
Summary of the method: as §1

ACVRL1 = biological target: T26, ACVRL1 (Homo sapiens, UniProt P37023)
T26 construct: purchased DiscoveRx KINOMEscan
Summary of the method: as §1

SNRK = biological target: T27, SNRK (Homo sapiens, UniProt Q9NRH2)
T27 construct: purchased DiscoveRx KINOMEscan
Summary of the method: as §1

NEK6 = biological target: T28, NEK6 (Homo sapiens, UniProt Q9HC98)
T28 construct: purchased DiscoveRx KINOMEscan
Summary of the method: as §1

YSK1 = biological target: T29, YSK1 (Homo sapiens, UniProt O00506)
T29 construct: purchased DiscoveRx KINOMEscan
Summary of the method: as §1

T15 sequence (Q9NQU5 whole entry): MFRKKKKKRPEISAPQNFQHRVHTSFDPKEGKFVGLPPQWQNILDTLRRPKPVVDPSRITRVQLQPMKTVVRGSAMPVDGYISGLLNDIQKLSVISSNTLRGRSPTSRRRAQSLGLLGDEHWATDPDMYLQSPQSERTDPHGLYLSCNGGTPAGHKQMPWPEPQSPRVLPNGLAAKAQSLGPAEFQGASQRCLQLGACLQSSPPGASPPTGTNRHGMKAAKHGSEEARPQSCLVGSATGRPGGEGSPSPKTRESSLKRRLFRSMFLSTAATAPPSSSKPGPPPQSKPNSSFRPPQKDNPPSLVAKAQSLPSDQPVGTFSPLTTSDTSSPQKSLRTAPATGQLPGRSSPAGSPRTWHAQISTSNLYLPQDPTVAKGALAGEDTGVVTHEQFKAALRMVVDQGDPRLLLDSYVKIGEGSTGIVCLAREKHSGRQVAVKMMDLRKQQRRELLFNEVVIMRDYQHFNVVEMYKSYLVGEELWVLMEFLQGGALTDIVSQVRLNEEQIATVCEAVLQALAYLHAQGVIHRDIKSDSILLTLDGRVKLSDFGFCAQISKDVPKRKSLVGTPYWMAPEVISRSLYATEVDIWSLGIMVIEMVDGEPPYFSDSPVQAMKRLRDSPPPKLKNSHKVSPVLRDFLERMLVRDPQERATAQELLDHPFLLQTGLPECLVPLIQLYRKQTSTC
T10 sequence (Q15208 whole entry): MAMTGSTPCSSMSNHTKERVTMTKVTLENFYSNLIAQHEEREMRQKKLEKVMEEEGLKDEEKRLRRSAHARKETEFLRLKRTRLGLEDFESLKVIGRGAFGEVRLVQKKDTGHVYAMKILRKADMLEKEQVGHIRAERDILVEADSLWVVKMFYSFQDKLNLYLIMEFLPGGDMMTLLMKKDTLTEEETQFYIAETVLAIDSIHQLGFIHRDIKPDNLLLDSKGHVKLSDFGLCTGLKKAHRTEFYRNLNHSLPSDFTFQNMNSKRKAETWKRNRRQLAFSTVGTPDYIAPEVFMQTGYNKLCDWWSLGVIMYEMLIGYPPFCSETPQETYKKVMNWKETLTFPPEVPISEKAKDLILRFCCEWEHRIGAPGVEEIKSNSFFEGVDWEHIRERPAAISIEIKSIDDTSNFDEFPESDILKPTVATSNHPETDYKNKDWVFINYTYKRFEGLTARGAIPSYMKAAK
T17 sequence (Q7KZI7 whole entry): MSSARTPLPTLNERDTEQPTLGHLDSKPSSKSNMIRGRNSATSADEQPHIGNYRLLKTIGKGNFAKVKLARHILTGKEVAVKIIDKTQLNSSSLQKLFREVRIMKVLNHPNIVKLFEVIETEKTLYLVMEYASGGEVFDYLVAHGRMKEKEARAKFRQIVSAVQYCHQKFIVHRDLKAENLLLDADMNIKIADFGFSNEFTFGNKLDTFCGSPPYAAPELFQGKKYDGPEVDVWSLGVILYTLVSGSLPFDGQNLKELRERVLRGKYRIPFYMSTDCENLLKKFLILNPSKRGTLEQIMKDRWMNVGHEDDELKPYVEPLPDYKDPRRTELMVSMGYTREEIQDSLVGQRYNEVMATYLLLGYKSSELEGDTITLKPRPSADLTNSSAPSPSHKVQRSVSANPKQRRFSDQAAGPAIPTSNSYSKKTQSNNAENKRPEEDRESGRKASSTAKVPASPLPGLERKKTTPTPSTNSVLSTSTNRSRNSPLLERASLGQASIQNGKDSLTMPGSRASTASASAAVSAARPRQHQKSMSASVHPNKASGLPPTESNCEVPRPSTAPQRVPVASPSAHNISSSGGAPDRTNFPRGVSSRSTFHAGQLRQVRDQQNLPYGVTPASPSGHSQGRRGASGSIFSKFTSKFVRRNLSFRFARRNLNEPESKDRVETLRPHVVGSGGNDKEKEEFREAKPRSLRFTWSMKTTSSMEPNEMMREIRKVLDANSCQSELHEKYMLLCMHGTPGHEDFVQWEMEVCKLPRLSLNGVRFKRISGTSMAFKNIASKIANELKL
T13 sequence (Q16512 whole entry): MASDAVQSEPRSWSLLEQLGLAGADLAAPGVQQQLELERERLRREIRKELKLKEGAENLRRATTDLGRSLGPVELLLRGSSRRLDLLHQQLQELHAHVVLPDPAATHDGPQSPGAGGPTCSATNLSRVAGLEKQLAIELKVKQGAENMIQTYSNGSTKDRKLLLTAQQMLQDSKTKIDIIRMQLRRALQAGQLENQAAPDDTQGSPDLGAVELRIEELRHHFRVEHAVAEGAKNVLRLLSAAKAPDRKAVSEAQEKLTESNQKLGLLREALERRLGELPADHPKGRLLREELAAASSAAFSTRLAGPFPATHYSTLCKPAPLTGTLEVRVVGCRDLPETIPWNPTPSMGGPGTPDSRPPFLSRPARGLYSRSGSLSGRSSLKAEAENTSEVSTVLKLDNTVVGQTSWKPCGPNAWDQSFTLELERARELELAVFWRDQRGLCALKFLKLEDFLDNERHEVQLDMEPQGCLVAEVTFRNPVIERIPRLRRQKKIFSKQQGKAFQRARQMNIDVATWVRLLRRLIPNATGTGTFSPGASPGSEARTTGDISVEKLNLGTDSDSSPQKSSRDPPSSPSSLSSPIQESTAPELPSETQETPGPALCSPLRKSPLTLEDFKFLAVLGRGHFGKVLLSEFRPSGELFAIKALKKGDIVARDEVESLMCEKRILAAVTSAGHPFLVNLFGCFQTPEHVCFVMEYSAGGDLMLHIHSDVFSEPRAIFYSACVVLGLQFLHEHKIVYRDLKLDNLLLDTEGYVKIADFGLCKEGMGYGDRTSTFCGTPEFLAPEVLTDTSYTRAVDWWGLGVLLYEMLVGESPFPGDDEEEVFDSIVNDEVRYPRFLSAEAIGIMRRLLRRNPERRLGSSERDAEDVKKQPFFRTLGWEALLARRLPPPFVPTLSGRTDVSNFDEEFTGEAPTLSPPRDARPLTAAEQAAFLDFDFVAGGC
T12 sequence (Q9BXA7 whole entry): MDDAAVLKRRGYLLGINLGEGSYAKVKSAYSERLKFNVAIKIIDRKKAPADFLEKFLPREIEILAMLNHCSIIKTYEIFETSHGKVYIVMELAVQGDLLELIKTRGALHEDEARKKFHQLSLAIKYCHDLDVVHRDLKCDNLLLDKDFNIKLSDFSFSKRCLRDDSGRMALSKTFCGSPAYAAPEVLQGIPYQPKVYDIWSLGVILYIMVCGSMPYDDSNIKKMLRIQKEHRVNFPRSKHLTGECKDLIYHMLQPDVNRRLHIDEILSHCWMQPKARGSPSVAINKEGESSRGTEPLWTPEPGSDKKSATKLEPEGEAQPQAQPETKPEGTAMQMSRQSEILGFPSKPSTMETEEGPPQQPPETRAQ
T23 sequence (P27361 whole entry): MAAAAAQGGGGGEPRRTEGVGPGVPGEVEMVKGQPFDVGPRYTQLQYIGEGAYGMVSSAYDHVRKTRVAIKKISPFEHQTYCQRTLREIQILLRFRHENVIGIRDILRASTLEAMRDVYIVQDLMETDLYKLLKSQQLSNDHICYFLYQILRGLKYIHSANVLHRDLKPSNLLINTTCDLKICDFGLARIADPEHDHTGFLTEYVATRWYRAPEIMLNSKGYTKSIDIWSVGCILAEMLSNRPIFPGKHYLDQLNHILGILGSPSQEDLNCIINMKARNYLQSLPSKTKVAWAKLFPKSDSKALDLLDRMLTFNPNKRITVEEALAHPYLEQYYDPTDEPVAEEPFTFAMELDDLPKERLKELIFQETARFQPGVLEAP
T22 sequence (Q8NFD2 whole entry): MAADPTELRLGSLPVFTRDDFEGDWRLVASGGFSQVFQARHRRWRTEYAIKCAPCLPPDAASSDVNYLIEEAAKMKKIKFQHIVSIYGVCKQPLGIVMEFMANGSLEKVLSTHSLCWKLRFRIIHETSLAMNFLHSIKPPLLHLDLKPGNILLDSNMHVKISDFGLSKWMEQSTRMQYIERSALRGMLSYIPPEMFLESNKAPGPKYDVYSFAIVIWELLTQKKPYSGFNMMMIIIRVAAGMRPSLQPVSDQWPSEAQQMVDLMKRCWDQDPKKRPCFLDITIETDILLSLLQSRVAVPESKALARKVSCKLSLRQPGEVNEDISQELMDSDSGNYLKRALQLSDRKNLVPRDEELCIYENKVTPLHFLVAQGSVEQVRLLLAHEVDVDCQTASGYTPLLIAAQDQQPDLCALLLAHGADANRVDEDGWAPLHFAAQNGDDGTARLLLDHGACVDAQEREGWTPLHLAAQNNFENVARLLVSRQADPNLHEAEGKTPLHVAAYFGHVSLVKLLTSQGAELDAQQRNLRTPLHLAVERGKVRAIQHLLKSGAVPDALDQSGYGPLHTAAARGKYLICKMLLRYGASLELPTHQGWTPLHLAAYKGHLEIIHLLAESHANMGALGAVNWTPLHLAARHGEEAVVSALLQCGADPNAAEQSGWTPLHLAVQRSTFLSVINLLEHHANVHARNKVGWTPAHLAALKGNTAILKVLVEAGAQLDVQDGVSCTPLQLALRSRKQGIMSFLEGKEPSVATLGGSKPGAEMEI
T18 sequence (P48730 whole entry): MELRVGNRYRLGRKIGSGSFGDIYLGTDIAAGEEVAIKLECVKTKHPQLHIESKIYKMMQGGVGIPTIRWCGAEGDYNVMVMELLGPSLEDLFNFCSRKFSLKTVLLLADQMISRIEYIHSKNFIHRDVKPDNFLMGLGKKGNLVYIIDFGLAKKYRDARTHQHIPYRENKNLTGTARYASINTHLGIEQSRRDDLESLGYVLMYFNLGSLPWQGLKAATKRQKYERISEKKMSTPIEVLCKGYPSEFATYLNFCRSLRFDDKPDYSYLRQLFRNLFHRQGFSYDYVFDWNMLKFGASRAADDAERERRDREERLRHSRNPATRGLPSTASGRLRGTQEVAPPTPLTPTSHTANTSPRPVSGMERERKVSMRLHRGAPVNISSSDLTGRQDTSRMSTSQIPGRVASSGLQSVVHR

Structure (SMILES): Cc1ccc(C2=Nc3cccnc3S(=O)(=O)c3ccccc32)cc1 [TBPT, 6-(p-tolyl)benzo[f] pyrido[2,3-b][1,4] thiazepine 11,11-dioxide]
- remaining binding at 5 µM (YANK2; 5 μM): 99%
- remaining binding at 10 µM (YANK2; 10 μM): 100%
- remaining binding at 5 µM ([1]; 5 μM): 100%
- remaining binding at 10 µM ([1]; 10 μM): 93%
- remaining binding at 5 µM (SLK; 5 μM): 100%
- remaining binding at 10 µM (SLK; 10 μM): 86%
- remaining binding at 5 µM (CAMKK1; 5 μM): 100%
- remaining binding at 10 µM (CAMKK1; 10 μM): 92%
- remaining binding at 5 µM (NLK; 5 μM): 83%
- remaining binding at 10 µM (NLK; 10 μM): 89%
- remaining binding at 5 µM (MET(Y1235D); 5 μM): 89%
- remaining binding at 10 µM (MET(Y1235D); 10 μM): 85%
- remaining binding at 5 µM (GCN2(Kin.Dom.2,S808G); 5 μM): 100%
- remaining binding at 10 µM (GCN2(Kin.Dom.2,S808G); 10 μM): 100%
- remaining binding at 5 µM (DLK; 5 μM): 88%
- remaining binding at 10 µM (DLK; 10 μM): 81%
- remaining binding at 5 µM (CDK3; 5 μM): 100%
- remaining binding at 10 µM (CDK3; 10 μM): 100%
- remaining binding at 5 µM (DRAK1; 5 μM): 94%
- remaining binding at 10 µM (DRAK1; 10 μM): 92%
- remaining binding at 5 µM (NDR1; 5 μM): 100%
- remaining binding at 10 µM (NDR1; 10 μM): 87%
- remaining binding at 5 µM (BLK; 5 μM): 88%
- remaining binding at 10 µM (BLK; 10 μM): 88%
- remaining binding at 5 µM (TSSK1B; 5 μM): 90%
- remaining binding at 10 µM (TSSK1B; 10 μM): 100%
- remaining binding at 5 µM (PKN1; 5 μM): 90%
- remaining binding at 10 µM (PKN1; 10 μM): 100%
- remaining binding at 5 µM (AKT3; 5 μM): 100%
- remaining binding at 10 µM (AKT3; 10 μM): 100%
- remaining binding at 5 µM (PAK6; 5 μM): 100%
- remaining binding at 10 µM (PAK6; 10 μM): 100%
- remaining binding at 5 µM (PIK3CA(C420R); 5 μM): 100%
- remaining binding at 10 µM (PIK3CA(C420R); 10 μM): 100%
- remaining binding at 5 µM (MARK2; 5 μM): 86%
- remaining binding at 10 µM (MARK2; 10 μM): 84%
- remaining binding at 5 µM (CSNK1D; 5 μM): 98%
- remaining binding at 10 µM (CSNK1D; 10 μM): 90%
- remaining binding at 5 µM (TEC; 5 μM): 90%
- remaining binding at 10 µM (TEC; 10 μM): 99%
- remaining binding at 5 µM (PIM2; 5 μM): 100%
- remaining binding at 10 µM (PIM2; 10 μM): 100%
- remaining binding at 5 µM (PRKCE; 5 μM): 100%
- remaining binding at 10 µM (PRKCE; 10 μM): 100%
- remaining binding at 5 µM (ANKK1; 5 μM): 91%
- remaining binding at 10 µM (ANKK1; 10 μM): 72%
- remaining binding at 5 µM (ERK1; 5 μM): 100%
- remaining binding at 10 µM (ERK1; 10 μM): 100%
- remaining binding at 5 µM (TTK; 5 μM): 100%
- remaining binding at 10 µM (TTK; 10 μM): 100%
- remaining binding at 5 µM (PHKG2; 5 μM): 100%
- remaining binding at 10 µM (PHKG2; 10 μM): 100%
- remaining binding at 5 µM (ACVRL1; 5 μM): 100%
- remaining binding at 10 µM (ACVRL1; 10 μM): 71%
- remaining binding at 5 µM (SNRK; 5 μM): 100%
- remaining binding at 10 µM (SNRK; 10 μM): 100%
- remaining binding at 5 µM (NEK6; 5 μM): 96%
- remaining binding at 10 µM (NEK6; 10 μM): 95%
- remaining binding at 5 µM (YSK1; 5 μM): 99%
- remaining binding at 10 µM (YSK1; 10 μM): 100%

— publication PMC4823954, “From fighting depression to conquering tumors: a novel tricyclic thiazepine compound as a tubulin polymerization inhibitor” (Cell Death & Disease, 2016)
